Data from patent publication US9567318B2, “Substituted pyrimidine compounds and uses thereof” (Memorial Sloan-Kettering Cancer Center, priority 2009, dated 2017).

Legend:
[1] = test system: MDA-MB-468 xenografted tumors; assay: Tumor xenografts; type: in vivo; conditions: i.t., alternate days, mice
Method: FIG. 12. YK5 affects the major hallmarks of cancer: inhibits proliferation and invasiveness and arrests cancer cells in the cell cycle. (a) The indicated cancer cells were incubated with increasing concentrations of inhibitors and growth over 72 h was assessed. Y-axis values below 0% represent cell death of the starting population. Drugs were assayed in triplicate. (b) Mice (n=5) bearing MDA-MB-468 subcutaneously (s.c.) xenografted tumors that reached a volume of approximately 100-200 mm^3, were administered i.t. YK5 or vehicle as described in Methods. Tumor volume (mm^3) was estimated from caliper measurements. (c) Cells were treated for 24 h with indicated concentrations of YK5. DNA content was analyzed by propidium iodide staining and flow cytometry (left), whereas proteins by western blotting (right). (d) Hsp70 client proteins isolated by YK55-beads from SKBr3 and MDA-MB-468 extracts (500 μg) were analyzed by western blotting. […] (e) MDA-MB-231 breast cancer cells were treated for 24 h with YK5 (1 μM) and protein extracts were subjected to immunoblotting (upper) or pre-treated for 24 h with vehicle or YK5, and viable cells able to migrate through Matrigel over a 20 h period were quantified and data graphed (lower). […]
Tumor Xenografts. […] Tumor volume was determined by measurement with Vernier calipers, and tumor volume was calculated as the product of its length×width^2×0.4. […]

[2] = test system: Hsp70s expressed in the MRC-5 cells; assay: Hsp70 competition assay using YK55 beads, MRC-5 extracts; type: binding, human; conditions: MRC-5 normal cell extracts
Method: (§1) FIG. 14. YK5 has a higher affinity for tumor Hsp70s and selectively kills cancer cells. (a-c) Cells were treated with the indicated concentrations of inhibitors for the times presented, and metabolically viable cells by Alamar blue uptake as described in Methods (a). Molecular markers of apoptosis (PARP and caspase-3 cleavage) were analyzed in cells treated for 24 h with indicated concentrations of inhibitors, by western blotting (b, c). Morphology of cells treated for 24 h with vehicle or the indicated inhibitors was analyzed by light microscopy (c). (d) Extracts (500 μg) were incubated overnight with beads containing D-biotin (75 μM) or the indicated concentrations of YK55 added to 50 μl streptavidin beads. HS=heat shocked. (e) SKBr3 (200 μg) and MRC-5 (400 μg) extracts and recombinant human Hsp70 (2 μg) were incubated for 3 h with the indicated concentrations with YK5, followed by precipitation of Hsp70 complexes on YK55-beads (50 μM YK55 added to 50 μl streptavidin beads). Data obtained from three independent experiments were graphed (right). Points, mean; bars, s.d.
(§2) In a second experiment, the ability of soluble YK5 to compete YK55-binding to normal and cancer cell Hsp70 species were tested (FIG. 14e). […] Interaction of YK5 was even weaker with recombinant human Hsp70 (FIG. 14e).
(§3) Hsp70 Competition Assay Using the YK55 Beads. […]

[3] = test system: Kasumi-1 acute myeloid leukemia cells; assay: Growth Inhibition Assay (Alamar blue), Kasumi-1; type: cell-based, human; conditions: Homo sapiens, Kasumi 1, 72 h, Kasumi-1 cells
Method in brief: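 Adherent SKBr3 cells seeded at 8,000/well and suspension Kasumi-1 cells at 20,000/well, rested 24 h at 37 °C, then treated in triplicate for 72 h. Viability read by Alamar blue (440 µM) fluorescence (ex 530/em 580 nm) after 6 h; growth inhibition calculated versus untreated controls, corrected for the time-zero cell population.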

[4] = test system: Hsp70 species from SKBr3 cancer cell extracts; assay: Hsp70 competition assay using YK55 beads, SKBr3 extracts; type: binding, human
Method: as §1, §2, §3

Question: C=CC(=O)Nc1cc(N)nc(Sc2c(OC)nc(N3CCN(C)CC3)nc2OC)n1 [YK5, N-(6-amino-2-(4,6-dimethoxy-2-(4-methylpiperazin-1-yl)pyrimidin-5-ylthio)pyrimidin-4-yl)acrylamide] was tested. Which “growth of xenografted tumors” value [1] did it give?
Answer: inhibited the growth of MDA-MB-468 xenografted tumors

Question: What about the “concentration necessary to observe displacement of Hsp70s from YK55-beads” value [2] of the same compound?
Answer: exceeded 200 μM

Question: And the IC50 [3]?
Answer: 0.4 to 0.6 µM

Question: And the “concentration competing binding of YK55-beads to Hsp70” value [4]?
Answer: low micromolar concentrations
